Columns and labels:
[1] = Storage stability of aqueous chlorine dioxide solutions, concentration measured by amperometric titration
From the text: To determine the impact of various contaminants, the inventors set up a series of experiments to test the effect of the contaminants at various concentrations.
Pure water containing less than 1 ppm solid impurities was used to dissolve the chlorine dioxide gas and form the aqueous chlorine dioxide solutions at a concentration of 3000 ppm+/−5% chlorine dioxide as the initial starting concentration. The data in the figures is reported as % of starting concentration unless otherwise noted.
All data on concentration of aqueous solutions were measured by amperometric titration as described in EPA Standard Methods. Serial dilution was used to adjust to the range of the analytical device.
The accuracy of the analytical technique used is ±3%. Any variation of less than 3% is not considered significant.

[2] = cited from earlier work

Compound: [O][Cl+][O-] [chlorine dioxide]
- loss of concentration (in words) ([1]; 1500-6000 ppm of salt, even at room temperature, compared with about 100 ppm or less): much higher
- rate of deterioration (in words) ([1]; 3000 ppm, alkali metal salts at 100 ppm, 40° C.): deteriorate at a much higher rate
- lose % of their concentration ([1]; 3000 ppm, less than 10 ppm alkali metal salts, about 100 days, temperatures up to 40° C.): less than 10%
- shelf life (in words) ([1]; FIG. 2, 4500 ppm starting concentration, distilled water, amber glass bottles, 10° C. to about 40° C.): commercially acceptable shelf life
- retains % of its starting concentration ([1]; FIG. 2, pure chlorine dioxide at about 3000 ppmw in pure water, 40° C., more than 90 days): ≥ 90%
- stability in PET bottles (in words) ([1]; FIG. 4, distilled water, 750 mL biaxially oriented PET bottles, after an initial rapid rate of loss): almost as stable as that stored in glass
- stability (in words) ([1]; FIG. 5, 25° C. and up to 100 ppm NaCl): equally stable within the margin of error
- rate of deterioration (in words) ([1]; FIG. 5, 100 ppm Na+ and 40° C.): deteriorated at a markedly higher rate
- effect of manganese ions on storage stability (in words) ([1]; FIG. 10, 3000 ppm initial, small amounts of manganese ions (e.g., 10 ppm)): greatly diminish the storage stability
- shelf life of refrigerated solutions ([1]; refrigerated, inferred from FIG. 2 data): about a year or more
- minimum decomposition rate ([2]; pH of 4.85 to 3.90, U.S. 2002/0037248): 0.6 % per hour
- strength lost ([2]; within 24 hours, U.S. Pat. No. 7,229,647): 80-90%

Source: patent US11135326B2, “Storage-stable aqueous solutions of chlorine dioxide and methods for preparing and using them” (CDG ENVIRONMENTAL, LLC, priority 2005, dated 2021)
